pEC50: −log10 of the molar value. Counter-ions that a name gives are not always drawn. Some results are limits rather than exact numbers.

By pEC50 is commonly meant −log10 of the EC50, conventionally taken in molar units.

Common to all, as to assay: Method 1: intracellular Ca2+ release (FLIPR, Calcium 5) in recombinant CHO-K1 cells
Type in all cases: cell-based

The target of one experiment is T1, human S1PR5 receptor (Homo sapiens, UniProt Q9H228).
T1 construct: host or cells: CHO-K1
Particulars: agonist potency, determined with method 1 (symbols A-D); read-out: S1P5 EC50 range. The procedure, abridged: (§1)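 Potency here reflects Ca2+ release in recombinant CHO-K1 cells carrying Gq/i5, measured by Calcium 5 fluorescence on FLIPR at RT in pH 7.4 Hepes-buffered HBSS with probenecid. EC50 values were fitted after scaling to phospho-fingolimod.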

In a further experiment the target is T2, human S1PR4 receptor (Homo sapiens, UniProt O95977).
T2 construct: host or cells: CHO-K1
T2 sequence (O95977 1-384): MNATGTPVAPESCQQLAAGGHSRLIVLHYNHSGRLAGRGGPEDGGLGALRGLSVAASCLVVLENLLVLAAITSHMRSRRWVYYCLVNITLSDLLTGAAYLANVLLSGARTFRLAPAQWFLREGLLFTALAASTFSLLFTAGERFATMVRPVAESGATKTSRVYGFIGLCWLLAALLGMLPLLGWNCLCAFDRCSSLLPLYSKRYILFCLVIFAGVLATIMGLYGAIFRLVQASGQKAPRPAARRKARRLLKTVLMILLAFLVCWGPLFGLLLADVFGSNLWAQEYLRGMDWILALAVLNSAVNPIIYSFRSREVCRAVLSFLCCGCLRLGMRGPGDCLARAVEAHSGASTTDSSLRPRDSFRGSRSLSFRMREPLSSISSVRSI
The following applies: (1): determined with method 1; read-out: S1P4 EC50. The procedure, abridged:
as §1

In a further experiment the target is T3, human S1PR1 receptor (Homo sapiens, UniProt P21453).
T3 construct: host or cells: CHO-K1
Particulars: (1): determined with method 1; read-out: S1P1 EC50. The method in brief:
as §1

T3 sequence (P21453 whole entry): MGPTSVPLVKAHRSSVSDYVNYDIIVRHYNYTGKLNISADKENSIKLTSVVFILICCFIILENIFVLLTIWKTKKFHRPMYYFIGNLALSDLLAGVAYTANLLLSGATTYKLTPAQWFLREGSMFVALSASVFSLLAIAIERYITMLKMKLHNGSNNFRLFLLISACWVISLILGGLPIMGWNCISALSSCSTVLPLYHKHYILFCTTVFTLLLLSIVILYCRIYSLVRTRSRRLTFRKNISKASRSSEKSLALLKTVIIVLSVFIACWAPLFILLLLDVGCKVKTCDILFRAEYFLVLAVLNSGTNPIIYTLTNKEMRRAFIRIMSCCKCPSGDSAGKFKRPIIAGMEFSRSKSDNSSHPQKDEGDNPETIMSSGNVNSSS
T1 sequence (Q9H228 whole entry): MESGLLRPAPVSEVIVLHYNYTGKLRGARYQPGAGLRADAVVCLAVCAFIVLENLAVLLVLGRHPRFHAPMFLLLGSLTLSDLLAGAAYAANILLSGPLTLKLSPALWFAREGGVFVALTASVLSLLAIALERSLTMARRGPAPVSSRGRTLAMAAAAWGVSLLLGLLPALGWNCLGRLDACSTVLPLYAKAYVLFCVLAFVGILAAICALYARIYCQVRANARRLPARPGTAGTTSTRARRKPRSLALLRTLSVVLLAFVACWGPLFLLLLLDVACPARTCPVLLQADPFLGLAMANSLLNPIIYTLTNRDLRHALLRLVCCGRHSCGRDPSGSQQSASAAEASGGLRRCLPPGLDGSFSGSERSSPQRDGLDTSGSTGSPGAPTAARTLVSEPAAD

Turning to `Cc1cccc(C)c1COc1ccc(-c2ncc3c(n2)CCN(CC(C)CC(=O)O)C3)c(F)c1` (stereo not drawn) [Compound 276, 4-[2-[4-[(2,6-dimethylphenyl)methoxy]-2-fluoro-phenyl]-7,8-dihydro-5H-pyrido[4,3-d]pyrimidin-6-yl]-3-methyl-butanoic acid 2,2,2-trifluoroacetic acid salt], the pEC50 on human S1PR5 receptor was 7.00 to 8.00; at human S1PR4 receptor it was < 6.00; on human S1PR1 receptor it was < 6.00.
Turning to `Cc1cc(C)cc(COc2ccc(-c3ncc4c(n3)CCN(CC(C)CC(=O)O)C4)c(F)c2)c1` (stereo not drawn) [Compound 313, 4-[2-[4-[(3,5-dimethylphenyl)methoxy]-2-fluoro-phenyl]-7,8-dihydro-5H-pyrido[4,3-d]pyrimidin-6-yl]-3-methyl-butanoic acid 2,2,2-trifluoroacetic acid salt], the pEC50 on human S1PR5 receptor was 6.00 to 7.00; on human S1PR4 receptor, < 6.00; on human S1PR1 receptor it was < 6.00.
With `Cc1cc(-c2ncc3c(n2)CCN(CC(C)CC(=O)O)C3)ccc1OCc1ccc(C(C)C)cc1` (stereo not drawn) [Compound 310, 4-[2-[4-[(4-isopropylphenyl)methoxy]-3-methyl-phenyl]-7,8-dihydro-5H-pyrido[4,3-d]pyrimidin-6-yl]-3-methyl-butanoic acid 2,2,2-trifluoroacetic acid salt], the pEC50 on human S1PR5 receptor is 6.00 to 7.00; at human S1PR4 receptor, < 6.00; at human S1PR1 receptor, < 6.00.
On to `O=C(O)C1CC(N2CCc3nc(-c4cccc(OCc5ccccc5)c4)cnc3C2)C1` (stereo not drawn) [Compound 208, 3-(2-(3-(benzyloxy)phenyl)-7,8-dihydropyrido[3,4-b]pyrazin-6(5H)-yl)cyclobutanecarboxylic acid], for which the pEC50 at human S1PR5 receptor was 5.00 to 6.00; at human S1PR4 receptor, < 6.00; at human S1PR1 receptor, < 6.00.
Consider `CC(C(=O)O)N1CCc2nc(-c3ccc(OCc4cc(F)cc(F)c4)cc3)ncc2C1` (stereo not drawn) [Compound 299, 2-(2-(4-((3,5-difluorobenzyl)oxy)phenyl)-7,8-dihydropyrido[4,3-d]pyrimidin-6(5H)-yl)propanoic acid], for which the pEC50 at human S1PR5 receptor is 6.00 to 7.00; at human S1PR4 receptor it was < 6.00; on human S1PR1 receptor, < 6.00.
As to `CC(C(=O)O)N1CCc2nc(-c3ccc(OCc4ccc(Cl)cc4)cc3)ncc2C1` (stereo not drawn) [Compound 312, 2-(2-(4-((4-chlorobenzyl)oxy)phenyl)-7,8-dihydropyrido[4,3-d]pyrimidin-6(5H)-yl)propanoic acid], the negative logarithm of the EC50 (pEC50) at human S1PR5 receptor was 6.00 to 7.00; at human S1PR4 receptor, < 6.00; at human S1PR1 receptor, < 6.00.
Regarding `CC(CC(=O)O)CN1CCc2nc(-c3ccc(C4CC4c4cccc(Cl)c4)cc3)ncc2C1` (stereo not drawn) [Compound 293, 4-(2-(4-(2-(3-chlorophenyl)cyclopropyl)phenyl)-7,8-dihydropyrido[4,3-d]pyrimidin-6(5H)-yl)-3-methylbutanoic acid], the negative logarithm of the EC50 (pEC50) is 6.00 to 7.00 on human S1PR5 receptor, < 6.00 at human S1PR4 receptor and < 6.00 at human S1PR1 receptor.
On to `C[C@H](CCO)CN1CCc2nc(-c3ccc(OCc4ccc(Cl)cc4)cc3)ncc2C1` [Compound 315, (R)-4-(2-(4-((4-chlorobenzyl)oxy)phenyl)-7,8-dihydropyrido[4,3-d]pyrimidin-6(5H)-yl)-3-methylbutan-1-ol], for which the pEC50 was 6.00 to 7.00 at human S1PR5 receptor, < 6.00 at human S1PR4 receptor and < 6.00 on human S1PR1 receptor.
Turning to `Cc1cc(-c2ncc3c(n2)CCN(C[C@@H](C)CC(=O)O)C3)ccc1OCc1ccc(Cl)cc1` [Compound 270, (S)-4-(2-(4-((4-chlorobenzyl)oxy)-3-methylphenyl)-7,8-dihydropyrido[4,3-d]pyrimidin-6(5H)-yl)-3-methylbutanoic acid], the pEC50 on human S1PR5 receptor was 7.00 to 8.00; on human S1PR4 receptor, < 6.00; at human S1PR1 receptor, < 6.00.
With `O=C(O)C1CCC(N2CCc3nc(-c4ccc(OCc5ccc(Cl)cc5)cc4)ncc3C2)C1` (stereo not drawn) [Compound 295, 3-(2-(4-((4-chlorobenzyl)oxy)phenyl)-7,8-dihydropyrido[4,3-d]pyrimidin-6(5H)-yl)cyclopentanecarboxylic acid], the pEC50 on human S1PR5 receptor is 6.00 to 7.00; on human S1PR4 receptor, < 6.00; at human S1PR1 receptor, < 6.00.
`Cc1cc(-c2ncc3c(n2)CCN(CC(C)CC(=O)O)C3)ccc1OCc1cccc(C)c1C` (stereo not drawn) [Compound 300, 4-[2-[4-[(2,3-dimethylphenyl)methoxy]-3-methyl-phenyl]-7,8-dihydro-5H-pyrido[4,3-d]pyrimidin-6-yl]-3-methyl-butanoic acid 2,2,2-trifluoroacetic acid salt]: the pEC50 at human S1PR5 receptor is 6.00 to 7.00; at human S1PR4 receptor, < 6.00; at human S1PR1 receptor, < 6.00.
With `CC(CC(=O)O)CN1CCc2nc(-c3ccc(CCc4cccc(Cl)c4)cc3F)ncc2C1` (stereo not drawn) [Compound 292, 4-(2-(4-(3-chlorophenethyl)-2-fluorophenyl)-7,8-dihydropyrido[4,3-d]pyrimidin-6(5H)-yl)-3-methylbutanoic acid], the values for the pEC50 at human S1PR5 receptor, on human S1PR4 receptor and at human S1PR1 receptor were 6.00 to 7.00, < 6.00 and < 6.00, respectively.
As for `CCc1ccccc1COc1ccc(-c2ncc3c(n2)CCN(CC(C)CC(=O)O)C3)cc1C` (stereo not drawn) [Compound 308, 4-[2-[4-[(2-ethylphenyl)methoxy]-3-methyl-phenyl]-7,8-dihydro-5H-pyrido[4,3-d]pyrimidin-6-yl]-3-methyl-butanoic acid 2,2,2-trifluoroacetic acid salt], the pEC50 is 6.00 to 7.00 at human S1PR5 receptor, > 6.00 on human S1PR4 receptor and < 6.00 on human S1PR1 receptor.
As for `Cc1ccc(COc2ccc(-c3ncc4c(n3)CCN(CC(C)CC(=O)O)C4)cc2C)c(C)c1` (stereo not drawn) [Compound 305, 4-[2-[4-[(2,4-dimethylphenyl)methoxy]-3-methyl-phenyl]-7,8-dihydro-5H-pyrido[4,3-d]pyrimidin-6-yl]-3-methyl-butanoic acid 2,2,2-trifluoroacetic acid salt], the pEC50 at human S1PR5 receptor is 6.00 to 7.00; at human S1PR4 receptor it was < 6.00; on human S1PR1 receptor, < 6.00.
For `CC(CC(=O)O)CN1CCc2nc(-c3ccc(/C=C/c4ccc(Cl)cc4F)cc3)ncc2C1` (stereo not drawn) [Compound 282], the figures for the pEC50 on human S1PR5 receptor, on human S1PR4 receptor and on human S1PR1 receptor were 7.00 to 8.00, < 6.00 and < 6.00, respectively.
Regarding `Cc1cc(-c2ncc3c(n2)CCN(CC(C)CC(=O)O)C3)ccc1OCc1cccc(C(F)(F)F)c1C` (stereo not drawn) [Compound 273, 3-methyl-4-(2-(3-methyl-4-((2-methyl-3-(trifluoromethyl)benzyl)oxy)phenyl)-7,8-dihydropyrido[4,3-d]pyrimidin-6(5H)-yl)butanoic acid], the pEC50 was 7.00 to 8.00 at human S1PR5 receptor, < 6.00 on human S1PR4 receptor and < 6.00 at human S1PR1 receptor.
As to `O=C(O)C1CC(N2CCc3nc(C#Cc4ccccc4)c(F)cc3C2)C1` (stereo not drawn) [Compound 184, 3-(3-fluoro-2-(phenylethynyl)-7,8-dihydro-1,6-naphthyridin-6(5H)-yl)cyclobutanecarboxylic acid], the pEC50 at human S1PR5 receptor is 5.00 to 6.00; at human S1PR4 receptor, < 6.00; on human S1PR1 receptor, < 6.00.
Take `Cc1cc(-c2ncc3c(n2)CCN(CC(C)CC(=O)O)C3)ccc1OCc1cccc(C(F)(F)F)c1` (stereo not drawn) [Compound 302, 3-methyl-4-[2-[3-methyl-4-[[3-(trifluoromethyl)phenyl]methoxy]phenyl]-7,8-dihydro-5H-pyrido[4,3-d]pyrimidin-6-yl]butanoic acid 2,2,2-trifluoroacetic acid salt]: the pEC50 is 6.00 to 7.00 at human S1PR5 receptor, < 6.00 at human S1PR4 receptor and < 6.00 on human S1PR1 receptor.
On to `O=C(O)CN1CCc2nc(-c3ccc(OCc4ccccc4)cc3)ncc2C1` [Compound 25, 2-(2-(4-(benzyloxy)phenyl)-7,8-dihydropyrido[4,3-d]pyrimidin-6(5H)-yl)acetic acid], for which the pEC50 on human S1PR5 receptor is 6.00 to 7.00; on human S1PR4 receptor it was < 6.00; at human S1PR1 receptor, < 6.00.
As to `CC(CC(=O)O)CN1CCc2nc(-c3ccc(OCc4cccc(F)c4)cc3F)ncc2C1` (stereo not drawn) [Compound 289, 4-[2-[2-fluoro-4-[(3-fluorophenyl)methoxy]phenyl]-7,8-dihydro-5H-pyrido[4,3-d]pyrimidin-6-yl]-3-methyl-butanoic acid 2,2,2-trifluoroacetic acid salt], the values for the negative logarithm of the EC50 (pEC50) on human S1PR5 receptor, on human S1PR4 receptor and on human S1PR1 receptor were 6.00 to 7.00, < 6.00 and < 6.00, respectively.
For `O=C(O)C1CC(N2CCc3nc(-c4ccc(OCc5ccc(Cl)cc5)cc4)ncc3C2)C1` (stereo not drawn) [Compound 287, 3-(2-(4-((4-chlorobenzyl)oxy)phenyl)-7,8-dihydropyrido[4,3-d]pyrimidin-6(5H)-yl)cyclobutanecarboxylic acid], the pEC50 is 6.00 to 7.00 at human S1PR5 receptor, < 6.00 at human S1PR4 receptor and < 6.00 at human S1PR1 receptor.
`O=C(O)CN1CCc2nc(Cc3c(F)cccc3F)ncc2C1` [Compound 26, 2-(2-(2,6-difluorobenzyl)-7,8-dihydropyrido[4,3-d]pyrimidin-6(5H)-yl)acetic acid]: the pEC50 at human S1PR5 receptor was 5.00 to 6.00; at human S1PR4 receptor it was < 6.00; at human S1PR1 receptor, < 6.00.
Regarding `Cc1ccc(COc2ccc(-c3ncc4c(n3)CCN(CC(C)CC(=O)O)C4)c(F)c2)cc1` (stereo not drawn) [Compound 307, 4-[2-[2-fluoro-4-(p-tolylmethoxy)phenyl]-7,8-dihydro-5H-pyrido[4,3-d]pyrimidin-6-yl]-3-methyl-butanoic acid 2,2,2-trifluoroacetic acid salt], the pEC50 was 6.00 to 7.00 on human S1PR5 receptor, < 6.00 at human S1PR4 receptor and < 6.00 on human S1PR1 receptor.

These data come from patent US10556907B2 (AbbVie Inc., priority 2015, dated 2020).
